According to patent US5480885A, “Ergoline derivatives of 1-propinylamine, a process for the manufacture thereof and the use thereof for medicaments” (priority 1991, dated 1996):
“Also recorded” adds a separate entry of the source. Read-outs that look alike come from different tables or passages of the source.

Columns and labels:
[1] = biological target: T1, isolated rabbit thoracic aorta (serotonin) (Oryctolagus cuniculus, UniProt G1SYA7); details: for mode of inhibition of serotonin constriction: in words
T1 construct: isolated rabbit thoracic aorta; from tissue; host or cells: isolated rabbit thoracic aorta

[2] = test system: isolated rabbit thoracic aorta (noradrenaline); assay: inhibition of the constrictive activity of noradrenaline on the isolated rabbit thoracic aorta
[3] = test system: isolated rat uterus (serotonin); assay: inhibition of serotonin-induced contractions of the isolated rat uterus; details: serotonin-induced contractions (serotonin 2.47×10^-8 M where printed)
isolated rat uterus = assay: uterotonic activity (isolated rat uterus); details: in words
[4] = blood pressure and heart rate in pentobarbital-anesthetized normotensive rats; format: in vivo, rat; details: rat, in vivo, iv; normotensive rats, pentobarbital-induced anesthesia; read-out: ED50, decrease of the mean arterial blood pressure
[5] = test system: pentobarbital-anesthetized normotensive rats; assay: as above; format: in vivo, rat; details: 450 μg/kg i.v.; for maximum reduction in carotid artery pressure / reduction in heart rate: vs initial level
pithed rats = assay: vasoconstriction / diastolic pressure in pithed rats (Gillespie); format: in vivo, rat; details: vs control
pupil = assay: dilatation of the pupil in mice (Pulewka); format: in vivo; details: 5 mg/kg i.p.; in words
[6] = biological target: T2, 5-HT1A serotoninergic receptor (Homo sapiens, UniProt P08908); assay: binding at [^3 H] 8-OH-DPAT binding site; details: for affinity to 5-HT1A receptor: [^3 H] 8-OH-DPAT, in words
T2 sequence (P08908 1-422): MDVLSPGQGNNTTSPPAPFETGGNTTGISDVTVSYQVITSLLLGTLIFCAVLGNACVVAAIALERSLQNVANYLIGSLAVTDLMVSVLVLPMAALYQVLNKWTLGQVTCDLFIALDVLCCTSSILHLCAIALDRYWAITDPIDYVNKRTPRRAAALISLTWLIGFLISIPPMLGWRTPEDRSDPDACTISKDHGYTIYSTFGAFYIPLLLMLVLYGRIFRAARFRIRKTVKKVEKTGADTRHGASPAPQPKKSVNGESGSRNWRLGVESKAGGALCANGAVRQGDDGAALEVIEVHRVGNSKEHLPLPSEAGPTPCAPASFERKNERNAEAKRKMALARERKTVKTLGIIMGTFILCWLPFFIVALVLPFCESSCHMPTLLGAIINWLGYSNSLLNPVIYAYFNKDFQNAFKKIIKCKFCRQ
Source text: (§1) Binding affinities of the compounds of Examples 1

[7] = biological target: T2, 5-HT1A serotoninergic receptor; assay: functional test, 5-HT1A serotoninergic receptor; details: in words
sigma receptor [8] = assay: binding at [^3 H] DTG binding site; details: in words
sigma receptor [9] = assay: functional test, sigma receptor; details: in words
M1 muscarinic receptor [10] = assay: binding at [^3 H] pirenzepine binding site; details: in words
M1 muscarinic receptor [11] = assay: functional test, M1 muscarinic receptor; details: in words
[12] = test system: isolated rabbit vena cava inferior; assay: venous constriction on the isolated rabbit vena cava inferior; details: 1×10^-7 M; in words
[13] = test system: isolated rabbit vena cava (noradrenaline); assay: inhibition of noradrenaline venous constriction on the isolated rabbit vena cava; details: vs noradrenaline
[14] = test system: urethane-anestetized normotensive rats; assay: adrenaline-induced vasopressoric response in urethane-anesthetized normotensive rats; format: in vivo, rat; details: 450 μg/kg i.v.; adrenaline 10 μg/kg i.v.
Protocol: In urethane-anestetized normotensive rats the compound (450 μg/kg, i.v.) intensified the adrenaline (10 μg/kg, i.v.)-induced vasopressoric response.

5-HT2 receptor = 5-HT2 receptor (Homo sapiens, UniProt P28223); assay: biochemical; format: binding; details: for affinity for 5-HT2 receptors: in words
Source text: as §1

D2 receptor = D2 receptor (Homo sapiens, UniProt P14416); assay: binding, [^3 H]Raclopride; details: for Ki: D2, [^3 H]Raclopride; for affinity for D2 receptors: in words
Source text: as §1

D1 receptor = D1 receptor (Homo sapiens, UniProt P21728); assay: binding, [^3 H]SCH23390
Source text: (§2) Binding affinities of the compounds of Examples 5

α1 receptor = assay: binding, [^3 H]Prazosin
Source text: as §2

D2 receptors [15] = biological target: T3, D2 receptors (Rattus norvegicus, UniProt P61169); assay: apomorphine-induced locomotion; format: in vivo; details: sc, -45 min., apomorphine 0.4 mg/kg s.c., rats, read-out: ID50, apomorphine-induced locomotion
T3 construct: from tissue; host or cells: living rats (central nervous system)

D2 receptors [16] = biological target: T4, D2 receptors (Mus musculus, UniProt P61168); assay: apomorphine-induced climbing in mice; format: in vivo; details: ip, -30 min., apomorphine 1.5 mg/kg s.c., read-out: ID50, climbing behavior
T4 construct: from tissue; host or cells: living mice (central nervous system)
Protocol: The application of apomorphine in a dose of 1.5 mg/kg s.c. caused a characteristic climbing behavior in mice.

catalepsy in rats = format: in vivo, rat; details: rat, in vivo, sc; rats
Protocol: (§3) The s.c. application of the compounds of Example 5 (0.5 to 16 mg/kg) and of Example 8 (0.125 to 4 mg/kg), respectively, caused catalepsy in rats (the method was described by Morelli and Chiara, Europ. J. Pharmacol. 117, 179-185, 1985).

rats = assay: catalepsy in rats; format: in vivo, rat; details: in words
Protocol: as §3

α1 receptors = assay: noradrenaline-induced lethality in rats; format: in vivo, rat; details: s.c.
acetylcholine receptors = assay: oxotremorine-induced tremor in mice; format: in vivo; details: 20 to 70 mg/kg i.p.; oxotremorine 1.5 mg/kg s.c.; in words
[17] = spontaneous motor activity in mice; format: in vivo; details: mouse, in vivo, ip; mice; read-out: ID50, inhibition of spontaneous motor activity
mice = assay: spontaneous motor activity in mice; format: in vivo; details: two models (motor activity and pentobarbital anesthesia); vs haloperidol; in words
[18] = prolongation of pentobarbital-induced anesthesia in mice; details: mouse, in vivo, ip
[19] = overall antipsychotic action and side-effect profile (summary statements); format: in vivo; details: in words
uterus in rats = assay: blocking of spontaneous uterus contractions in rats; details: Rattus norvegicus; 1000 ng/ml
Protocol: At a concentration of 1000 ng/ml it caused a 100% blocking of spontaneous uterus contractions in rats (see Jalon).

5-HT2 receptors = biological target: T5, 5-HT2 receptors (Mus musculus, UniProt P35363); assay: inhibition of the head twitch response after 5-HTP/carbidopa; format: in vivo, mice; details: ip, mice, 5-hydroxytryptophan/carbidopa, read-out: ID50, inhibition of head twitch response
T5 construct: The head twitch model in mice; from tissue; host or cells: living mice (central nervous system)
Protocol: The substance was injected 15 minutes prior to DL-5-HTP. The head twitch was recorded from 30 to 35 minutes after the DL-5-HTP injection (modified method according to Handley and Singh, Br. J. Pharmacol. 86, 297 (1985)).
The compound was injected 15 minutes prior to L-5-HTP (modified method according to Handley and Singh, Br. J. Pharmacol. 86, 297 (1985)).
The head twitch model in mice represents an experimental model for determining the hallucinogenic action of a compound (the method was described by Handley and Singh, Br.J.Pharmacol., 86, 297-303, 1985). It is believed that the response is conveyed via the 5-HT2 receptors.

5-HT1A receptors [20] = assay: spontaneous tail-flicks in rats; format: in vivo, rat; details: 0.08 to 0.63 mg/kg s.c. (Example 1); 5.0 mg/kg s.c. (Example 2); in words
5-HT1A receptors [21] = assay: inhibition of 8-OH-DPAT-caused spontaneous tail-flick in rats; format: in vivo, rat; details: in words

T1 sequence (G1SYA7 entry or part of it): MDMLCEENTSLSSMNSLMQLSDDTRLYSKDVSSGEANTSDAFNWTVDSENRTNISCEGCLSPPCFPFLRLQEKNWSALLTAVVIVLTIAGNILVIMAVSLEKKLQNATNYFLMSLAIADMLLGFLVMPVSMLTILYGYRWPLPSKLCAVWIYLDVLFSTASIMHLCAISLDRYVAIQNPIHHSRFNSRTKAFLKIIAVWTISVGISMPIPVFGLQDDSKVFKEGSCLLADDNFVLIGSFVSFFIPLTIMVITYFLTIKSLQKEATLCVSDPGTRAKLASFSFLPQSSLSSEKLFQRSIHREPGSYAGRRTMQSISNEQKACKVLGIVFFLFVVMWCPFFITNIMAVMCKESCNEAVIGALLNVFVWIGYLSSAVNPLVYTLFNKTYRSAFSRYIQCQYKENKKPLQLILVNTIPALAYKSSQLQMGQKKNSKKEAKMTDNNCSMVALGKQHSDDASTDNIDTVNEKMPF
Sequence of 5-HT2 receptor (P28223 whole entry): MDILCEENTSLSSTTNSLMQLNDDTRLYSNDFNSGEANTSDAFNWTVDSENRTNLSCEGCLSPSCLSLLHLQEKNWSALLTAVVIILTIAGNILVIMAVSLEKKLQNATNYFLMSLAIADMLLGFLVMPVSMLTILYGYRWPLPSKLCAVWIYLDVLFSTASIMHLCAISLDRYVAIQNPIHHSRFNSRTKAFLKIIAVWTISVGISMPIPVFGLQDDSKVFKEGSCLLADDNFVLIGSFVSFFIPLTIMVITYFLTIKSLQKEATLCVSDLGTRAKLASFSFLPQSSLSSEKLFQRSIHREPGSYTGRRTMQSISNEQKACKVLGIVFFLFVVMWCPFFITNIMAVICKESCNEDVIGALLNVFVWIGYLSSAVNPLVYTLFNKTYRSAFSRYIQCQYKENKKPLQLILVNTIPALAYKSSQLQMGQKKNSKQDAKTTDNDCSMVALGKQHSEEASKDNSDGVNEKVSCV
Sequence of D2 receptor (P14416 whole entry): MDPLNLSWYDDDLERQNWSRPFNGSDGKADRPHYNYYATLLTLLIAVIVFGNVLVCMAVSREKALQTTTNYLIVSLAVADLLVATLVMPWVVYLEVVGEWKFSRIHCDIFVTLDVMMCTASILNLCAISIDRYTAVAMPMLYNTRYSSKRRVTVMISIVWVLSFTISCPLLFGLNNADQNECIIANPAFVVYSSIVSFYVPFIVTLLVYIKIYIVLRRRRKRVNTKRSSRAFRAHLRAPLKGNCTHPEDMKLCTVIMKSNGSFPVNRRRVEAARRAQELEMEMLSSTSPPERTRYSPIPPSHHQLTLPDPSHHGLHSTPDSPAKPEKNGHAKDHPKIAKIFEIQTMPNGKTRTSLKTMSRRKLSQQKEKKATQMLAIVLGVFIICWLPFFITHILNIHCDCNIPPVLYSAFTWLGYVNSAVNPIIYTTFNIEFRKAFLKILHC
Sequence of D1 receptor (P21728 whole entry): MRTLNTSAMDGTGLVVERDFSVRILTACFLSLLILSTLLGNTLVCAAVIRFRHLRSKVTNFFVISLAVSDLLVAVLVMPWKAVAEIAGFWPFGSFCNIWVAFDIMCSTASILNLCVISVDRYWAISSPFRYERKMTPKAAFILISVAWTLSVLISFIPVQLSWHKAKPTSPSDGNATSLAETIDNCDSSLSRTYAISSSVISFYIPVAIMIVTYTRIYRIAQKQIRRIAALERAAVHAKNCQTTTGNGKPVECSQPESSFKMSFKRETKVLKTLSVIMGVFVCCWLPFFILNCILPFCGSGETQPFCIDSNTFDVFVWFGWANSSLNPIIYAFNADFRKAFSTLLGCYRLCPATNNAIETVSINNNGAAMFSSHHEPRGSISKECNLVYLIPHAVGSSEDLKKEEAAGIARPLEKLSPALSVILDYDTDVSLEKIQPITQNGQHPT
T3 sequence (P61169 whole entry): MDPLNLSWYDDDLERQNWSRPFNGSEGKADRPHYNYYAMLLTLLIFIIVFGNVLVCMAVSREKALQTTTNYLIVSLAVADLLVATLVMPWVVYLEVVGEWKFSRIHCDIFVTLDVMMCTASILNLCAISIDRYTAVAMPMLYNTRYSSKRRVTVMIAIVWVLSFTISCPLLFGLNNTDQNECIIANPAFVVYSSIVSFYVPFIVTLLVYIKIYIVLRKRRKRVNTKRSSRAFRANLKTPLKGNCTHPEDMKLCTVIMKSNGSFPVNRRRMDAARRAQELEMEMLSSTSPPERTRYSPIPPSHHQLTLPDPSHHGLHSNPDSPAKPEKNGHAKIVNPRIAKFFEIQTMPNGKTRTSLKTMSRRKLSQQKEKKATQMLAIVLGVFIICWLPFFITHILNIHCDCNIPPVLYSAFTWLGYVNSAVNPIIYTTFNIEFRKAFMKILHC
T5 sequence (P35363 whole entry): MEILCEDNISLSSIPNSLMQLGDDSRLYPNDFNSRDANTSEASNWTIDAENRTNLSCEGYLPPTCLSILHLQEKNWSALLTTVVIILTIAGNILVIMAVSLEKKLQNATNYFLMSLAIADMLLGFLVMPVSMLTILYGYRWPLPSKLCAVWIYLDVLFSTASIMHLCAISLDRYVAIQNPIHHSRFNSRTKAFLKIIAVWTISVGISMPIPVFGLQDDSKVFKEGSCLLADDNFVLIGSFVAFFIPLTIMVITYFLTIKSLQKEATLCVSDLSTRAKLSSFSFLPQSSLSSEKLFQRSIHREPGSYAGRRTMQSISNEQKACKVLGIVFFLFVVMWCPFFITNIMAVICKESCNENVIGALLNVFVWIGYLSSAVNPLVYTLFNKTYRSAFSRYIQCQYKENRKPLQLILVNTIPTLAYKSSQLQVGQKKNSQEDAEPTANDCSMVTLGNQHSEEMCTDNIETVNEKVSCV
T4 sequence (P61168 whole entry): as the sequence (P61169 whole entry) above, with A29P counted along it

In the case of `C#CCN(C)C[C@@H]1C=C2c3cccc4[nH]cc(c34)C[C@H]2N(C)C1` [Example 8], the Kb [1] is reported as 0.741 nM, the “mode of inhibition of serotonin constriction” value [1] is reported as “competitively inhibited” and the “mode of inhibition of noradrenaline constriction” value ([2]; in words) is reported as “competitively inhibited”. The pA2 ([2]; vs noradrenaline) was 6.39, the IC50 [3] was 1.85 nM and the uterotonic activity (isolated rat uterus) was “no uterotonic activity”. The ED50 [4] was 0.37 mg/kg, the “effect on carotid artery pressure” value ([5]; in words) was “strong and sustained decrease in carotid artery pressure” and the “maximum reduction in carotid artery pressure” value [5] was 20%. For the same compound, the “reduction in heart rate” value [5] was “less than 20%”, the “mean increase in diastolic pressure” value (pithed rats; 450 μg/kg i.v.) was 20% and the “dilatation of the pupil” value (pupil) was “strong dilatation of the pupil”. The “affinity to 5-HT1A receptor” value [6] was “possessed affinity”, the “functional activity at 5-HT1A” value [7] was “did not indicate any activity” and the “affinity to sigma receptor” value (sigma receptor [8]) was “possessed affinity”. For the same compound, the “functional activity at sigma receptor” value (sigma receptor [9]) was “indicated an antagonistic activity”, the “affinity to M1 muscarinic receptor” value (M1 muscarinic receptor [10]) was “possessed affinity” and the “functional activity at M1 muscarinic receptor” value (M1 muscarinic receptor [11]) was “indicated an antagonistic activity”. For the same compound, the venous constriction [12] was “minimal venous constriction”, the pA2 [13] was 6.63 and the “effect on adrenaline-induced vasopressoric response” value [14] was “intensified”. For the same compound, the Ki (5-HT2 receptor) was 10 nM, the “affinity for 5-HT2 receptors” value (5-HT2 receptor) was “high affinity” and the Ki (D2 receptor) was 3.8 nM. For the same compound, the “affinity for D2 receptors” value (D2 receptor) was “high affinity”, the Ki (D1 receptor; D1, [^3 H]SCH23390) was 87 nM and the “affinity for D1 receptors” value (D1 receptor; in words) was “lower”. The “affinity for α1 receptors” value (α1 receptor; in words) was “lower”, the Ki (α1 receptor; α1, [^3 H]Prazosin) was 245 nM and the ED50 (D2 receptors [15]) was 0.089 mg/kg. For the same compound, the ED50 (D2 receptors [16]) was 0.44 mg/kg, the ED50 (catalepsy in rats) was 0.29 mg/kg and the “cataleptic action compared with haloperidole” value (rats) was “lesser than the action caused by the typical antipsychotic haloperidole”. The “ID50, noradrenaline-induced lethality” value (α1 receptors) was 3.75 mg/kg, the “inhibition of oxotremorine-induced tremor” value (acetylcholine receptors) was “dose-dependent inhibition” and the ED50 [17] was 8.4 mg/kg. The “depressant action on the level of CNS” value (mice) was “several times lower depressant action on the level of CNS if compared with haloperidol”, the ED50 [18] was 17.1 mg/kg and the antipsychotic action [19] was “strongest antipsychotic action”. The side effect liability [19] was “lesser degree of probability of the development of extrapyramidal, central depressant and hypotensive side effects”.
In the case of `C#CCNC(=O)[C@@H]1C=C2c3cccc4[nH]c(Br)c(c34)C[C@H]2N(C)C1` [Example 2, 2-Bromo-9,10-didehydro-N-(2'-propinyl)-6-methylergoline-8β-carboxamide], the “mode of inhibition of serotonin constriction” value [1] is reported as “competitively inhibited”, the Kb ([1]; vs serotonin, read-out: pA2 (converted)) is reported as 7.41 nM and the IC50 [3] is reported as 26.9 nM. For the same compound, the inhibition at 1 µg/mL (uterus in rats) was 100%, the “duration of the transient effect” value [5] was “up to 20 minutes” and the “maximum reduction in carotid artery pressure” value [5] was 15%. The “reduction in heart rate” value [5] was 5%, the “mean increase of the diastolic pressure” value (pithed rats; 450 μg/kg i.p.) was 20% and the ED50 (5-HT2 receptors) was 8.2 mg/kg. The “dilatation of the pupil” value (pupil) was “marked dilatation of the pupil”, the Ki ([6]; 5-HT1A, [^3 H]8-OH-DPAT) was 206 nM and the “affinity to 5-HT1A receptor” value [6] was “somewhat lower affinity; also recorded: possessed affinity”. The “functional activity at 5-HT1A” value [7] was “did not indicate any activity”, the “affinity to sigma receptor” value (sigma receptor [8]) was “possessed affinity” and the “functional activity at sigma receptor” value (sigma receptor [9]) was “indicated an antagonistic activity”. For the same compound, the Ki (5-HT2 receptor; 5-HT2, [^3 H]Ketanserin, read-out: Ki) was 90 nM, the “affinity for 5-HT2 receptors” value (5-HT2 receptor) was “high affinity” and the Ki (D2 receptor) was 44 nM. For the same compound, the “affinity for D2 receptors” value (D2 receptor) was “high affinity”, the spontaneous tail-flick (5-HT1A receptors [20]) was “did not cause a spontaneous tail-flick in rats” and the “inhibition of 8-OH-DPAT-caused spontaneous tail-flick” value (5-HT1A receptors [21]; 0.63 to 5.0 mg/kg s.c., 8-OH-DPAT 2.5 mg/kg s.c.) was “strongly inhibit the spontaneous tail-flick in rats”. For the same compound, the “effect in tail-flick inhibition model compared with buspirone” value (5-HT1A receptors [21]) was “very similar to that of buspirone”.
